{"source": "patent US20240158439A1", "about": "“INHIBITORS OF ANTIGEN PRESENTATION BY MHC CLASS II HLA-DRB1*15:01 MOLECULES WITH ENHANCED METABOLIC STABILITY” (Provid Pharmaceuticals Inc., priority 2021, published 2024)", "key": {"HLA-DRB1*15:01": {"target": "T1, HLA-DRB1*15:01 (Homo sapiens, UniProt P01903+P01911)", "T1 construct": "endogenous in cells; host or cells: EBV homozygous cell lines (human)", "assay": "HLA II binding assay (competitive, biotinylated reference peptide)"}, "[1]": {"assay": "Mouse pharmacokinetics/metabolism study", "format": "in vivo, C57BL/6J mice", "experimental": "The pharmacokinetics/metabolism study was performed in non-fasted C57BL/6J mice. Dose formulation was prepared on the day of treatment, using 10% v/v DMSO solution and 90% sterile water for injection as vehicle. Blood samples were collected at 0.25, 0.5, 1, 2, 4, 6, 8, 12 and 24 hr post-dose (n=9 mice/group, staggered sampling with 3 mice/time point). At each time point, under isoflurane anesthesia approximately 70 μL of blood was collected through retro orbital plexus puncture and transferred into a pre-labeled tube. 50 μL of blood was taken from the prelabeled tube and it was added into a labelled tube containing 200 μL of acetonitrile to precipitate proteins. Immediately, blood samples were vortexed to facilitate mixing of acetonitrile with the blood. Samples were kept on dry ice at −70° C. until analysis. [table] Bioanalysis was performed using fit-for-purpose analytical method using LC-MS/MS method for the quantification of PV-267 (Parent) or PV-3212 (Parent) and PV-623 (Metabolite) in mice blood samples and the linearity range was 2 to 2500 ng/mL for PV-267 (Parent), PV-3212 (Parent) and PV-623 (metabolite). The blood pharmacokinetic parameters for PV-267 and PV-3212 were calculated by using standard non-compartmental analysis (Phoenix software, version 6.4, Pharsight Corporation, Mountain View, Calif. 94040/USA) using the sparse sampling model and linear trapezoidal with linear interpolation calculation method. Pharmacokinetic Parameters for PV-623 (metabolite) were not calculated due to insufficient blood concentrations."}, "[2]": {"assay": "Pharmacokinetics of PV-267 in rats and mice"}, "[3]": {"system": "EAE in DRB1*15:01 transgenic mice", "conditions": "cited from earlier work"}, "[4]": {"system": "Goodpasture antigen (α3(IV)NC1)", "conditions": "Huynh et al. 2019; cited from earlier work"}, "[5]": {"system": "BC3 T cells + autologous hPBMCs from DRB1*15:01-positive MS patient", "assay": "Human cellular immunology assay (IFN-gamma ELISPOT)", "format": "cell-based", "conditions": "inhibition of IFN-gamma response, FIG. 2", "experimental": "After washing and blocking, autologous APCs (irradiated PBMCs) pretreated with different concentrations of the DRB1*15:01 inhibitors for 45 min were added on the plate (0.3−0.5×10^6 cells per well), followed by the addition of Ag or positive control using PHA (Sigma-Aldrich) or anti-human CD3 mAb (Bio X Cell; OKT3) along with BC3 T cells or enriched PBMC T cells (4,000-20,000 cells per well). Plates were incubated at 37° C. for 24 h, then washed and biotinylated anti-human IFN-γ mAb (Thermo Scientific; B133.5) was added at 4° C., overnight. After that, plates were incubated with Streptavidin AP (Invitrogen) and developed with BCIP/NBT Phosphatase substrate (KPL) after washing. After developing of the plates, image analysis of ELISPOT assays was performed on a Series 2 ImmunoSpot analyzer and software (CTL) as described previously (Kawamura, K., et al., (2008) J. Immunol. 181: 3202-3211)."}, "[6]": {"conditions": "C57BL/6J, mouse, in vivo, ip, 10 mg/kg"}}, "note": "Values joined by “and” are separate entries in the source; they are usually repeats but may differ in a detail not shown here. Equal values may be shown once. Read-outs that look alike come from different tables or passages of the source. Where a SMILES comes first, the peptide text is derived from it. [ ]: non-standard residue; d: D form. The star is where a group is joined. NH(CH2CH2O)4Me = COCCOCCOCCOCCN*; Tic = O=C(O)[C@@H]1Cc2ccccc2CN1; Chg = N[C@H](C(=O)O)C1CCCCC1; NHCH2CH2OMe = COCCN*"}
{"smiles": "CC(=O)N[C@H](C(=O)N[C@H](C(=O)N[C@@H](CCCNC(=N)N)C(=O)N1Cc2ccccc2C[C@H]1C(=O)N[C@@H](Cc1ccccc1)C(N)=O)C1CCCCC1)C(C)C", "note": "[PV-267, Ac-V-(Chg)-R-(Tic)-F—NH2] (Ac-V[Chg]R[Tic]F-NH2)", "values": [{"measurement": "IC50", "setting": "HLA-DRB1*15:01; read-out: binding IC50", "result": 2.5, "unit": "nM"}, {"measurement": "ratio of metabolite PV-623 to parent at 0.25 hr", "setting": "[1]; 10 mg/kg IP, 0.25 hr", "result": "0.61 and 0.67"}, {"measurement": "ratio of metabolite PV-623 to parent at 0.5 hr", "setting": "[1]; 10 mg/kg IP, 0.5 hr", "result": 0.73}, {"measurement": "level at 0.25 h", "setting": "[1]; C57BL/6J, mouse, plasma, ip, 10 mg/kg, parent, text b45, 0.25 hr, read-out: plasma concentration at 0.25 hr", "result": 275, "unit": "ng/mL"}, {"measurement": "level at 0.5 h", "setting": "[1]; C57BL/6J, mouse, plasma, ip, 10 mg/kg, parent, text b45, 0.5 hr, read-out: plasma concentration at 0.5 hr", "result": 91.5, "unit": "ng/mL"}, {"measurement": "Cmax", "setting": "[1]; C57BL/6J, mouse, whole blood, single IP 10 mg/kg, observed at 0.25 hr post dose, read-out: Parent peak blood concentration", "result": 275, "unit": "ng/mL"}, {"measurement": "metabolism to the acid PV-623", "setting": "[1]; mouse PK studies", "result": "rapidly metabolized to PV-623"}, {"measurement": "Mean Plasma Concentration 0.25 hr", "setting": "[1]; parent compound, 10 mg/kg IP, 0.25 hr", "result": 275, "unit": "ng/mL"}, {"measurement": "Mean Plasma Concentration 0.5 hr", "setting": "[1]; parent compound, 10 mg/kg IP, 0.5 hr", "result": 91.5, "unit": "ng/mL"}, {"measurement": "in vivo conversion to C-terminal acid PV-623", "setting": "[2]", "result": "significantly converted to the C-terminal acid PV-623"}, {"measurement": "efficacy in animal models of multiple sclerosis", "setting": "[3]", "result": "efficacy in animal models of multiple sclerosis"}, {"measurement": "autoreactivity to the Goodpasture antigen", "setting": "[4]", "result": "attenuates autoreactivity to the Goodpasture antigen"}]}
{"smiles": "COCCNC(=O)[C@H](Cc1ccccc1)NC(=O)[C@@H]1Cc2ccccc2CN1C(=O)[C@H](CCCNC(=N)N)NC(=O)[C@@H](NC(=O)[C@@H](NC(C)=O)C(C)C)C1CCCCC1", "note": "[PV-3212, Ac-V-(Chg)-R-(Tic)-F—NH(CH2CH2O)1CH3] (Ac-V[Chg]R[Tic]F-NHCH2CH2OMe)", "values": [{"measurement": "potency compared to PV-267 in human cellular assay", "setting": "[5]", "result": "more potent than the simple amide (PV-267)"}, {"measurement": "Cmax", "setting": "[1]; [6]", "result": 741, "unit": "ng/mL"}, {"measurement": "half-life", "setting": "[1]; [6]", "result": 3.23, "unit": "h"}, {"measurement": "level at 0.25 h", "setting": "[1]; [6]", "result": 741, "unit": "ng/mL"}, {"measurement": "level at 0.5 h", "setting": "[1]; [6]", "result": 195, "unit": "ng/mL"}, {"measurement": "metabolism to the acid PV-623", "setting": "[1]; mouse, in vivo", "result": "remarkably stable"}, {"measurement": "Mean Plasma Concentration 0.25 hr", "setting": "[1]; mouse, in vivo, ip, 10 mg/kg", "result": 741, "unit": "ng/mL"}, {"measurement": "Mean Plasma Concentration 0.5 hr", "setting": "[1]; mouse, in vivo, ip, 10 mg/kg", "result": 195, "unit": "ng/mL"}]}
{"smiles": "CC(=O)N[C@H](C(=O)N[C@H](C(=O)N[C@@H](CCCNC(=N)N)C(=O)N1Cc2ccccc2C[C@H]1C(=O)N[C@@H](Cc1ccccc1)C(=O)O)C1CCCCC1)C(C)C", "note": "[PV-623, Ac-V-(Chg)-R-(Tic)-F—OH] (Ac-V[Chg]R[Tic]F-OH)", "values": [{"measurement": "IC50", "setting": "HLA-DRB1*15:01; Table 2, DRB1*15:01 binding, unit inferred, nM, read-out: Avg IC50", "result": 26, "unit": "nM"}, {"measurement": "Mean Plasma Concentration 0.25 hr", "setting": "[1]; acid metabolite PV-623 after PV-267 10 mg/kg IP, 0.25 hr", "result": 169, "unit": "ng/mL"}, {"measurement": "Mean Plasma Concentration 0.5 hr", "setting": "[1]; acid metabolite PV-623 after PV-267 10 mg/kg IP, 0.5 hr", "result": 65.3, "unit": "ng/mL"}, {"measurement": "Mean Plasma Concentration 0.25 hr", "setting": "[1]; acid metabolite PV-623 after PV-3212 10 mg/kg IP, 0.25 hr", "result": 8.54, "unit": "ng/mL"}, {"measurement": "Mean Plasma Concentration 0.5 hr", "setting": "[1]; acid metabolite PV-623 after PV-3212 10 mg/kg IP, 0.5 hr", "result": 3.57, "unit": "ng/mL"}]}
{"smiles": "COCCOCCOCCOCCNC(=O)[C@H](Cc1ccccc1)NC(=O)[C@@H]1Cc2ccccc2CN1C(=O)[C@H](CCCNC(=N)N)NC(=O)[C@@H](NC(=O)[C@@H](NC(C)=O)C(C)C)C1CCCCC1", "note": "[PV-3213, Ac-V-(Chg)-R-(Tic)-F—NH(CH2CH2O)4CH3] (Ac-V[Chg]R[Tic]F-{NH(CH2CH2O)4Me})", "values": [{"measurement": "potency compared to PV-267 in human cellular assay", "setting": "[5]", "result": "at least as potent as the unsubstituted PV-267"}]}
